Values quoted from earlier work in US20050025807A1, “Cured porous calcium phosphate material and uses thereof” (NATIONAL INSTITUTE OF ADVANCED INDUSTRIAL SCIENCE AND …, priority 2003, published 2005).

Conditions: agitation 200 to 300 rpm at 30° C.; calculated by Nernst-Noyes-Whitney formula

CCC1(c2ccccc2)C(=O)NC(=O)NC1=O [phenobarbitol]
Thickness of diffusion layer: about 30 microns
